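GI50 = concentration required for 50% inhibition of growth. TGI: concentration producing complete growth inhibition.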
Columns and labels:
Experiment in all cases: DTP human tumour cell line panel, 384-well format
786-0 renal = system: 786-0 renal
A498 renal = system: A498 renal
A549 NSCLC = system: A549 NSCLC
ACHN renal = system: ACHN renal
BT-549 breast = system: BT-549 breast
CAKI-1 renal = system: CAKI-1 renal
CCRF-CEM leukemia = system: CCRF-CEM leukemia
COLO 205 colon = system: COLO 205 colon
DU-145 prostate = system: DU-145 prostate
HCC-2998 colon = system: HCC-2998 colon
HCT-116 colon = system: HCT-116 colon
HCT-15 colon = system: HCT-15 colon
HL-60(TB) leukemia = system: HL-60(TB) leukemia
HOP-62 NSCLC = system: HOP-62 NSCLC
HOP-92 NSCLC = system: HOP-92 NSCLC
HT29 colon = system: HT29 colon
IGROV1 ovarian = system: IGROV1 ovarian
K-562 leukemia = system: K-562 leukemia
KM12 colon = system: KM12 colon
LOX IMVI melanoma = system: LOX IMVI melanoma
M14 melanoma = system: M14 melanoma
MALME-3M melanoma = system: MALME-3M melanoma
MCF7 breast = system: MCF7 breast
MDA-MB-231 breast = system: MDA-MB-231 breast
MDA-MB-435 melanoma = system: MDA-MB-435 melanoma
MDA-MB-468 breast = system: MDA-MB-468 breast
MOLT-4 leukemia = system: MOLT-4 leukemia
NCI-H226 lung = system: NCI-H226 lung
NCI-H23 lung = system: NCI-H23 lung
NCI-H322M lung = system: NCI-H322M lung
NCI-H460 NSCLC = system: NCI-H460 NSCLC
NCI-H522 lung = system: NCI-H522 lung
NCI/ADR-RES ovarian = system: NCI/ADR-RES ovarian
OVCAR-3 ovarian = system: OVCAR-3 ovarian
OVCAR-4 ovarian = system: OVCAR-4 ovarian
OVCAR-5 ovarian = system: OVCAR-5 ovarian
OVCAR-8 ovarian = system: OVCAR-8 ovarian
PC-3 prostate = system: PC-3 prostate
RPMI-8226 leukemia = system: RPMI-8226 leukemia
RXF 393 renal = system: RXF 393 renal
SF-268 CNS = system: SF-268 CNS
SF-295 CNS = system: SF-295 CNS
SF-539 CNS = system: SF-539 CNS
SK-MEL-2 melanoma = system: SK-MEL-2 melanoma
SK-MEL-28 melanoma = system: SK-MEL-28 melanoma
SK-MEL-5 melanoma = system: SK-MEL-5 melanoma
SK-OV-3 ovarian = system: SK-OV-3 ovarian
SN12C renal = system: SN12C renal
SNB-19 CNS = system: SNB-19 CNS
SR leukemia = system: SR leukemia
SW-620 colon = system: SW-620 colon
T-47D breast = system: T-47D breast
TK-10 renal = system: TK-10 renal
U251 glioblastoma = system: U251 glioblastoma
UACC-257 melanoma = system: UACC-257 melanoma
UACC-62 melanoma = system: UACC-62 melanoma
UO-31 renal = system: UO-31 renal

For `CNC(=O)n1ccc2cc(Oc3ccnc(NC(=O)c4ccc(C5CCN(CCO)CC5)cc4)c3)c(OCCOC)cc21`, which GI50 ([…]-0 renal) is on record?
The GI50 was 1120 nM.

What about the TGI (786-0 renal) of the same compound?
Its TGI is 2430 nM.

And the GI50 (A498 renal)?
Its GI50 is 1260 nM.

What about the TGI (A498 renal) of the same compound?
Its TGI is 2960 nM.

What about the GI50 (A549 NSCLC) of the same compound?
Its GI50 is 3210 nM.

What about the TGI (A549 NSCLC) of the same compound?
Its TGI is 11100 nM.

And the GI50 (ACHN renal)?
Its GI50 is 1730 nM.

What about the TGI (ACHN renal) of the same compound?
The TGI was 3310 nM.

What about the GI50 (BT-549 breast) of the same compound?
Its GI50 is 1370 nM.

And the TGI (BT-549 breast)?
The TGI was 3060 nM.

What about the GI50 (CAKI-1 renal) of the same compound?
The GI50 was 2770 nM.

What about the TGI (CAKI-1 renal) of the same compound?
Its TGI is 5470 nM.

What about the GI50 (CCRF-CEM leukemia) of the same compound?
Its GI50 is 1740 nM.

What about the TGI (CCRF-CEM leukemia) of the same compound?
The TGI was 3130 nM.

What about the GI50 (COLO 205 colon) of the same compound?
Its GI50 is 2270 nM.

And the TGI (COLO 205 colon)?
Its TGI is 5230 nM.

And the GI50 (DU-145 prostate)?
The GI50 was 3600 nM.

What about the TGI (DU-145 prostate) of the same compound?
Its TGI is 12400 nM.

And the GI50 (HCC-2998 colon)?
The GI50 was 2240 nM.

What about the TGI (HCC-2998 colon) of the same compound?
Its TGI is 4070 nM.

What about the GI50 (HCT-116 colon) of the same compound?
The GI50 was 1320 nM.

And the TGI (HCT-116 colon)?
The TGI was 2650 nM.

And the GI50 (HCT-15 colon)?
Its GI50 is 1670 nM.

What about the TGI (HCT-15 colon) of the same compound?
Its TGI is 3180 nM.

And the GI50 (HL-60(TB) leukemia)?
Its GI50 is 2480 nM.

And the TGI (HL-60(TB) leukemia)?
Its TGI is 3950 nM.

What about the GI50 (HOP-62 NSCLC) of the same compound?
Its GI50 is 2120 nM.

And the TGI (HOP-62 NSCLC)?
Its TGI is 4610 nM.

What about the GI50 (HOP-92 NSCLC) of the same compound?
Its GI50 is 1650 nM.

And the TGI (HOP-92 NSCLC)?
The TGI was 3550 nM.

What about the GI50 (HT29 colon) of the same compound?
The GI50 was 171 nM.

And the TGI (HT29 colon)?
Its TGI is 699 nM.

What about the GI50 (IGROV1 ovarian) of the same compound?
Its GI50 is 3480 nM.

What about the TGI (IGROV1 ovarian) of the same compound?
The TGI was 14000 nM.

And the GI50 (K-562 leukemia)?
Its GI50 is 186 nM.

What about the TGI (K-562 leukemia) of the same compound?
The TGI was 451 nM.

And the GI50 (KM12 colon)?
Its GI50 is 1840 nM.

What about the TGI (KM12 colon) of the same compound?
The TGI was 3650 nM.

What about the GI50 (LOX IMVI melanoma) of the same compound?
The GI50 was 1720 nM.

And the TGI (LOX IMVI melanoma)?
The TGI was 3110 nM.

What about the GI50 (M14 melanoma) of the same compound?
The GI50 was 1910 nM.

And the TGI (M14 melanoma)?
Its TGI is 3330 nM.

And the GI50 (MALME-3M melanoma)?
The GI50 was 1830 nM.

And the TGI (MALME-3M melanoma)?
The TGI was 3240 nM.

What about the GI50 (MCF7 breast) of the same compound?
The GI50 was 1350 nM.

And the TGI (MCF7 breast)?
The TGI was 3300 nM.

And the GI50 (MDA-MB-231 breast)?
The GI50 was 1650 nM.

And the TGI (MDA-MB-231 breast)?
The TGI was 3170 nM.

What about the GI50 (MDA-MB-435 melanoma) of the same compound?
The GI50 was 2250 nM.

And the TGI (MDA-MB-435 melanoma)?
The TGI was 4050 nM.

What about the GI50 (MDA-MB-468 breast) of the same compound?
Its GI50 is 1860 nM.

What about the TGI (MDA-MB-468 breast) of the same compound?
Its TGI is 3280 nM.

And the GI50 (MOLT-4 leukemia)?
The GI50 was 1400 nM.

What about the TGI (MOLT-4 leukemia) of the same compound?
The TGI was 2700 nM.

What about the GI50 (NCI-H226 lung) of the same compound?
The GI50 was 66.3 nM.

And the TGI (NCI-H226 lung)?
Its TGI is 2180 nM.

And the GI50 (NCI-H23 lung)?
The GI50 was 3860 nM.

And the TGI (NCI-H23 lung)?
Its TGI is 13400 nM.

What about the GI50 (NCI-H322M lung) of the same compound?
Its GI50 is 1830 nM.

What about the TGI (NCI-H322M lung) of the same compound?
The TGI was 4690 nM.

What about the GI50 (NCI-H460 NSCLC) of the same compound?
The GI50 was 1650 nM.

What about the TGI (NCI-H460 NSCLC) of the same compound?
Its TGI is 3100 nM.

What about the GI50 (NCI-H522 lung) of the same compound?
Its GI50 is 2130 nM.

And the TGI (NCI-H522 lung)?
The TGI was 3850 nM.

What about the GI50 (NCI/ADR-RES ovarian) of the same compound?
The GI50 was 4830 nM.

What about the TGI (NCI/ADR-RES ovarian) of the same compound?
Its TGI is 16600 nM.

And the GI50 (OVCAR-3 ovarian)?
The GI50 was 2030 nM.

What about the TGI (OVCAR-3 ovarian) of the same compound?
The TGI was 3650 nM.

What about the GI50 (OVCAR-4 ovarian) of the same compound?
The GI50 was 1380 nM.

What about the TGI (OVCAR-4 ovarian) of the same compound?
The TGI was 2830 nM.

What about the GI50 (OVCAR-5 ovarian) of the same compound?
The GI50 was 1970 nM.

And the TGI (OVCAR-5 ovarian)?
The TGI was 7920 nM.

What about the GI50 (OVCAR-8 ovarian) of the same compound?
The GI50 was 1820 nM.

And the TGI (OVCAR-8 ovarian)?
Its TGI is 3300 nM.

And the GI50 (PC-3 prostate)?
Its GI50 is 2310 nM.

What about the TGI (PC-3 prostate) of the same compound?
The TGI was 4650 nM.

And the GI50 (RPMI-8226 leukemia)?
Its GI50 is 1520 nM.

And the TGI (RPMI-8226 leukemia)?
Its TGI is 2860 nM.

And the GI50 (RXF 393 renal)?
Its GI50 is 304 nM.

And the TGI (RXF 393 renal)?
The TGI was 913 nM.

And the GI50 (SF-268 CNS)?
The GI50 was 1770 nM.

And the TGI (SF-268 CNS)?
Its TGI is 3650 nM.

And the GI50 (SF-295 CNS)?
Its GI50 is 1820 nM.

And the TGI (SF-295 CNS)?
The TGI was 3760 nM.

What about the GI50 (SF-539 CNS) of the same compound?
The GI50 was 1020 nM.

And the TGI (SF-539 CNS)?
The TGI was 2190 nM.

And the GI50 (SK-MEL-2 melanoma)?
Its GI50 is 1590 nM.

And the TGI (SK-MEL-2 melanoma)?
The TGI was 2990 nM.

And the GI50 (SK-MEL-28 melanoma)?
Its GI50 is 1840 nM.

And the TGI (SK-MEL-28 melanoma)?
The TGI was 3250 nM.

And the GI50 (SK-MEL-5 melanoma)?
Its GI50 is 1480 nM.

And the TGI (SK-MEL-5 melanoma)?
The TGI was 2810 nM.

What about the GI50 (SK-OV-3 ovarian) of the same compound?
Its GI50 is 1830 nM.

What about the TGI (SK-OV-3 ovarian) of the same compound?
The TGI was 3620 nM.

And the GI50 (SN12C renal)?
Its GI50 is 3500 nM.

What about the TGI (SN12C renal) of the same compound?
The TGI was 9770 nM.

What about the GI50 (SNB-19 CNS) of the same compound?
The GI50 was 3610 nM.

What about the TGI (SNB-19 CNS) of the same compound?
Its TGI is 11800 nM.

What about the GI50 (SR leukemia) of the same compound?
The GI50 was 830 nM.

What about the TGI (SR leukemia) of the same compound?
Its TGI is 2050 nM.

And the GI50 (SW-620 colon)?
Its GI50 is 3010 nM.

And the TGI (SW-620 colon)?
The TGI was 4960 nM.

What about the GI50 (T-47D breast) of the same compound?
Its GI50 is 1080 nM.

What about the TGI (T-47D breast) of the same compound?
The TGI was 2300 nM.

And the GI50 (TK-10 renal)?
Its GI50 is 1960 nM.

And the TGI (TK-10 renal)?
Its TGI is 4440 nM.

And the GI50 (U251 glioblastoma)?
The GI50 was 1560 nM.

What about the TGI (U251 glioblastoma) of the same compound?
Its TGI is 3110 nM.

What about the GI50 (UACC-257 melanoma) of the same compound?
The GI50 was 1420 nM.

And the TGI (UACC-257 melanoma)?
Its TGI is 2730 nM.

And the GI50 (UACC-62 melanoma)?
Its GI50 is 1750 nM.

And the TGI (UACC-62 melanoma)?
Its TGI is 3160 nM.

What about the GI50 (UO-31 renal) of the same compound?
The GI50 was 498 nM.

What about the TGI (UO-31 renal) of the same compound?
Its TGI is 1740 nM.
